What all share (type): physicochemical
Series [1] in a line: Dynamic vapor sorption (DVS) moisture sorption isotherm, Hiden IGA-sorp. As to conditions: for hygroscopicity (in words): tosylate. On the procedure: DVS moisture sorption isotherms were generated using a Hiden Analytical IGA-sorp moisture sorption analyzer. Samples were run as received without pre-analysis drying. Each sample was equilibrated between about 30 and 120 minutes at each relative humidity (RH) step. Temperature was fixed at about 25° C. and the relative humidity steps (0 to 95% RH) were in 5-10% increments. Sample sizes ranged from 3 to 30 mg. After DVS measurement, XRPD was measured in order to check the solid form. Dynamic Vapor sorption (DVS) moisture sorption isotherms were generated using IGA-sorp moisture sorption analyzer (Hiden Analytical). Sample measurements were run without drying before analyses. XRPD was measured in order to check any changes of the solid form after the moisture sorption/desorption. The measurement condition is shown below: • Time at each RH steps: From 30 to 120 minutes • Relative humidity steps: 5 or 10% steps • Temperature: 25° C.

A short description of series [2]: Solubility of Compound 1 Tosylate in solvents. As to the method: Considering the formation of the genotoxic impurities with alcohol, water was selected as the solvent and acetone as the anti-solvent. The solubility in the water-acetone binary solvent system indicates the feasibility for crystallization in this solvent system. Further solubility was also measured to help define the operation conditions.

Series [3] in a line: Differential scanning calorimetry (DSC). As to conditions: sealed pan, 10° C./min. As to the method: DSC chart was obtained using a TA Instruments DSC Q1000 differential scanning calorimeter. Each sample was analyzed in a crimped pan with a pinhole, heated under a nitrogen purge at a rate of 10° C./min, from 10° C. to 250° C. or 300° C.
Differential Scanning Calorimeter (DSC) chart was obtained by DSC Q1000 differential scanning calorimeter (TA Instruments). Each sample was analyzed in a crimped pan with a pinhole. The measurement condition is shown below: • Atmosphere: Nitrogen • Elevated temperature rate: 10° C./min • Temperature range: From 10° C. to 250 or 300° C.
All DSC analyses were performed using TA Instruments Q100 differential scanning calorimeter. Lots 1-3 were analyzed in a sealed pan. Each sample was heated under a 50 mL/min nitrogen purge at a heating rate of 10° C./min, from a starting temperature of 25° C. up to a final temperature of 300° C. Sample size ranged from […].
A general note: Differential scanning calorimetry records heat flow against a reference as temperature is scanned.

[4] abbreviates: Lot 1, recrystallized from water/acetone.
Where [5] appears, read: Lot 2, recrystallized from water/acetone.
[6] abbreviates: Lot 3, recrystallized from water/acetone.

Each structure is given as a SMILES string.

With `CNC[C@@H]1OCCn2nc3ccccc3c21.Cc1ccc(S(=O)(=O)O)cc1` [Compound 1 Tosylate, (S)-1-(3,4-dihydro-1H-[1,4]oxazino[4,3-b]indazol-1-yl)-N-methylmethanamine tosylate], the “weight gain at 95% RH” value in series [1] (about 25° C., 95% RH) is listed as “about 1%”. The “hygroscopicity (in words)” value in series [1] (listed as Tosylate) is “less hygroscopicity”; in series [1] (listed as tosylate), “low hygroscopicity”. Further, in series [2], the “solubility (in words)” value was “decent solubility in methanol and water”. Moreover, the “DSC Onset” value in series [3] (setting [4]) came out at 240.5 °C; in series [3] (setting [5]), 240.2 °C; in series [3] (setting [6]), 239.7 °C. The results for the “DSC Peak” value in series [3] (setting [4]), in series [3] (setting [5]) and in series [3] (setting [6]) were 241.9 °C, 241.7 °C and 241.4 °C, respectively. The “DSC ΔHf” value in series [3] (setting [4]) worked out at 122 J/g; in series [3] (setting [5]) it was 113 J/g; in series [3] (setting [6]), 123 J/g.

(Values after patent US20250276980A1, “SALTS OF A HETEROCYCLIC COMPOUND AND CRYSTALLINE FORMS, PROCESSES FOR PREPARING, THERAPEUTIC USES, AND PHARMACEUTICAL COMPOSITIONS THEREOF” (Sunovion Pharmaceuticals Inc., priority 2020, published 2025).)
